In US20030017565A1, “COMPOSITION AND METHOD FOR TREATING A POROUS ARTICLE AND USE THEREOF” (priority 1996, published 2003):

Columns and labels:
[1] = leaching of cypress blocks, bilirubin oxidase (Example 6); type: physicochemical; conditions: for Elution Rate (%) LSA: pH 8.1-8.8; for Elution Rate (%) Chemical Agent: pH 8.1-8.8, species as bracketed (Copper, Zinc, Nickel, Boron, H = hinokitiol), else the agent named
Text: Taking the amounts of the lignosulfonic acid (LSA) and chemical agent as injected upon the impregnation treatment as 100%, respectively, the amounts of the substances which were eluted were compared.

[2] = leaching of Japan cedar blocks after initial vacuum and pressure impregnation (Example 10); type: physicochemical; conditions: initial vacuum then 10 atm, enzyme added, 5% LSA; for Elution Rate (%) LSA: pH 8.1-8.8; for Elution Rate (%) Chemical Agent: pH 8.1-8.8, species as bracketed (Copper, Zinc, Nickel, H = hinokitiol), else the agent named
Protocol: A reaction mixture for treating wood containing 30 ppm of the freeze-dried product described in Example 1, 5% of commercially available lignosulfonic acid, and one or more various chemical agents was prepared, and Japan cedar wood blocks (3 cm×3 cm×2 cm, butt end: 3 cm×3 cm) were subjected to pressure reduction (initial vacuum) and impregnation treatment under pressure using the reaction mixture in the same manner as in Examples 3 and 4.
The pressure reduction and pressurization were performed by setting a vessel for impregnation operation as shown in FIG. 1 in a pressure reactor (5 liter in volume), conducting initial vacuum from 600 to 720 mmHg for 30 minutes using a vacuum pump, tilting the whole apparatus to allow the treatment liquid to flow toward the wood so that the wood blocks can be dipped in the treatment liquid, and then pressurized at 10 atm for 1 hour by flowing high pressure nitrogen gas in the reactor.
The wood blocks after the impregnation treatment were further subjected to drying/macromolecularization reaction and leaching treatment in the same manner as in Examples 3 and 4. The amounts of the chemical agents and lignosulfonic acid which were eluted were calculated and compared taking the amounts of them injected upon the impregnation treatment as 100%.

[3] = leaching of Japan cedar blocks treated with LSA and chemical agents (Example 4); type: physicochemical; conditions: 5% LSA; for Elution Rate (%) Chemical Agent: species measured as bracketed (Copper, Zinc, Nickel, Boron, H = hinokitiol), else the agent named
Protocol: For chemical agents having low solubilities, they were added to aqueous lignosulfonic acid solution after it was warmed to 60 to 90° C., and it was cooled at 25° C. after the chemical agents were suspended, dispersed, dissolved by Vortex-Mixer, […]
The amount of lignosulfonic acid which leached off was determined by measurement of the absorbance at 280 nm, and the amount of the chemical agent which leached off was determined by complex formation and spectrophotometry using PAN (1-(2-pyridylazo)-2-naphthol, Aldrich Chemical Company) or quinalizarin (Wako Pure Chemicals), separation, identification and determination, using HPLC or gas chromatography, or atomic absorption analysis were performed, followed by calculation of the amount of the chemical agents which was eluted. When the chemical agents had absorption at 280 nm, the concentration of lignosulfonic acid was calculated by measuring the absorbance at 280 nm of the chemical agents of which the concentration was measured by the above-described method and subtracting an influence by the chemical agent from the absorbance at 280 nm of the liquid which was eluted. The amounts of the chemical agents and lignosulfonic acid which were eluted were calculated and compared taking the amounts of them injected upon the impregnation treatment as 100%.

[4] = leaching of cypress blocks, Myrothecium roridum enzyme (Example 5); type: physicochemical; conditions: 40 ppm Example 2 enzyme, 5% LSA; for Elution Rate (%) LSA: pH 8.2-8.8; for Elution Rate (%) Chemical Agent: pH 8.2-8.8, species as bracketed (Copper, H = hinokitiol), else the agent named
Protocol: (§1) The amounts of the chemical agents and lignosulfonic acid which were eluted were calculated and compared taking the amounts of them injected upon the impregnation treatment as 100%.

[5] = leaching of cypress blocks, peroxidase + alcohol oxidase (Example 7); type: physicochemical; conditions: 5 U/ml peroxidase + 5 U/ml alcohol oxidase + 1% methanol; for Elution Rate (%) LSA: pH 8.1-8.8; for Elution Rate (%) Chemical Agent: pH 8.1-8.8, species as bracketed (Copper, Zinc, Boron, H = hinokitiol), else the agent named
Text: The peroxidase used was obtained from horse radish (Type II, Sigma) and the alcohol oxidase used was obtained from Candida boidini (Boehringer Mannheim Biochemica).

[6] = tested on: Tyromyces palustris FEPRI 0507; assay: antifungal test on treated wood, weight loss; type: cell-based; conditions: leached wood blocks of Example 10, LSA added, enzyme added, pH of treating liquid 8.1-8.8, 26° C., 12 weeks
Protocol: (§2) After completion of the antifungal operation, the wood blocks were taken out of the incubator and hyphae on the surface thereof were removed sufficiently. After air dried for about 24 hours, the wood blocks were dried sufficiently using a drier and a desiccator in the same manner as described above and their weight was measured. Percent weight loss (%) was calculated by comparing the weight obtained with the weight before the antifungal operation.

[7] = tested on: Coriolus versicolor FEPRI 1030; assay: antifungal test on treated wood, weight loss; type: cell-based; conditions: leached wood blocks of Example 10, LSA added, enzyme added, pH of treating liquid 8.1-8.8, 26° C., 12 weeks
Protocol: as §2

house termite = assay: termite preventing test on treated wood, weight reduction; type: in vivo; conditions: leached wood blocks of Example 10, LSA added, enzyme added, pH 8.1-8.5, about 40 cm from termite nest, 2 months
Text: The wood blocks were placed on the soil at a distance of about 40 cm around the nest of house termite. After they were left to stand for 2 months, termite preventive properties were observed. […] Then, the dry weight thus obtained was compared with the weight of the wood blocks before the placement on the soil, thus calculating a weight reduction rate.

[8] = leaching of Japan cedar blocks, treating mixture with tung oil (Example 8); type: physicochemical; conditions: Example 1 enzyme, 5% LSA, 2,000 ppm tung oil
Protocol: as §1

[9] = copper retention rate in Japan cedar sapwood after three leachings (Example 23); type: physicochemical; conditions: pH of treating liquid 4.6, three leachings of 8 hours
Protocol: Aqueous solutions having the compositions listed in table 15 below were prepared and adjusted to pH 8.5 with sodium hydroxide. Those compositions which contained no ethylenediamine (EDA) nor ethanolamine (MEA) were tested at pH 4.5 since copper is deposited as copper hydroxide in alkaline regions. […] The wood blocks were taken out of the solutions and air-dried at 28 ° C. for 72 hours and then dried in a forced air circulation drier at 60° C. for 48 hours. After the drying, the wood blocks were submerged in 10 fold volume of deionized water at 25° C. with stirring at 300 rpm for 8 hours for leaching. This operation was repeated three times. The rate of copper fixed to wood was calculated from the sum of the amounts of eluted copper ions by the three elution operations to the total amount of copper ions in the solution impregnated in the wood.

[10] = leaching of Japan cedar blocks after reduced pressure impregnation (Example 3); type: physicochemical; conditions: no LSA, enzyme not added, pH 4.1
Protocol: The pH was adjusted with sodium hydroxide or sulfuric acid. The reduced pressure impregnation operation was performed by a handy method, i.e., by applying a reduced pressure of 650 to 700 mmHg for 1 hour after dipping the Japan cedar blocks in the treatment liquid and then keeping the blocks at atmospheric pressure for 30 minutes as they were dipped in the treatment liquid. By measuring the weights of each block before and after the impregnation treatment, it was confirmed that as a result of the pressure reduction treatment operation, a sufficient amount of the treating liquid (10 to 14 g) was injected in the blocks. Further, the wood blocks after the impregnation treatment were placed in an incubator at 28° C., for 5 days to effect drying and macromolecularization reaction.

[11] = in the absence of enzyme (comparison), pH 8.1-8.8
[12] = in the presence of enzyme, Japan cedar, pH of treating agent 8.1-8.8
[13] = in the presence of enzyme, pH 8.1-8.8

Compound | Elution Rate (%) LSA [1] | Elution Rate (%) Chemical Agent [1] | Elution Rate (%) LSA [2] | Elution Rate (%) Chemical Agent [2] | Elution Rate (%) LSA [3, 11] | Elution Rate (%) Chemical Agent [3, 11] | Elution Rate (%) LSA [3, 12] | Elution Rate (%) Chemical Agent [3, 13] | Elution Rate (%) LSA [4] | Elution Rate (%) Chemical Agent [4] | Elution Rate (%) LSA [5] | Elution Rate (%) Chemical Agent [5] | Weight Loss (%) Tyromyces palustris [6] | Weight Loss (%) Coriolus versicolor [7] | Weight Reduction Rate (%) (house termite) | Elution Rate (%) LSA ([8]; pH 8.1-8.5) | Elution Rate (%) Chemical Agent ([8]; pH 8.1-8.5, species as bracketed (Copper, Zinc, Nickel, H = hinokitiol), else the agent named) | Copper Retention Rate (%) ([9]; enzyme added (20 ppm)) | Copper Retention Rate (%) ([9]; enzyme not added) | Elution Rate (%) Copper [10]
(+)-Catechin · H2O [1000 ppm (+)-Catechin · H2O] | 4.4% | 6.3% | 2.1% | 2.0% | 23.4% | 11.3% | 2.7% | 2.8% | 5.2% | 6.6% | 5.3% | 8.7% | 9.9% | 8.3% | – | – | – | – | – | –
O=C(OC[C@H]1O[C@@H](OC(=O)c2cc(O)c(O)c(OC(=O)c3cc(O)c(O)c(O)c3)c2)[C@H](OC(=O)c2cc(O)c(O)c(OC(=O)c3cc(O)c(O)c(O)c3)c2)[C@@H](OC(=O)c2cc(O)c(O)c(OC(=O)c3cc(O)c(O)c(O)c3)c2)[C@@H]1OC(=O)c1cc(O)c(O)c(OC(=O)c2cc(O)c(O)c(O)c2)c1)c1cc(O)c(O)c(OC(=O)c2cc(O)c(O)c(O)c2)c1 [500 ppm Tannic acid, Tannic acid] | 6.6% | 8.3% | 2.3% | 3.1% | 24.2% | 21.0% | 3.8% | 4.0% | 6.8% | 8.7% | 9.2% | 10.3% | 12.9% | 10.8% | – | – | – | – | – | –
CC(C)c1cccc(=O)c(O)c1 [1000 ppm Hinokitiol, Hinokitiol] | 1.7% | 5.4% | 0.4% | 2.3% | 24.2% | 14.4% | 0.6% | 3.1% | 2.2% | 7.2% | 4.5% | 6.2% | 2.2% | 1.5% | 2.2% | 1.1% | 0.5% | – | – | –
O=S(=O)([O-])[O-].[Cu+2] [0.04 M CuSO4, copper (II) sulfate] | – | – | – | – | – | – | – | – | – | – | – | – | – | – | – | – | – | 19.3% | 21.8% | 58.5%
